Test results taken from publication PMC10266688 (PLOS ONE, 2023).

How the values were obtained:
[1] = Microsomal stability, human liver microsomes; format: in vitro ADME; settings: for % Drug Remaining NADPH Neg, Human Liver Microsomes / % Drug Remaining NADPH Pos, Human Liver Microsomes: 10 μM
Protocol: An incubation mixture with, and without NADPH-generating system, as well as a neat solution prepared without microsomes and NADPH-generating system was used. […] All reactions were initiated with the addition of Up284. Incubations were performed in glass tubes maintained at 37°C in a shaker bath. At 0, 30, and 60 minutes, 10 μL samples were withdrawn from the reaction mixture, and 0.5 mL of acetonitrile containing internal standard was added to each. Samples were vortex-mixed and subjected to centrifugation for 5 min at 1430 x g. A 10 μL aliquot of the supernatant was injected onto the LC-MS/MS instrument for qualitative analysis using a temperature-controlled autosampling device operating at 5°C.

TOV21G and ES2 cells = assay: Annexin V apoptosis assay; settings: 12 h
[2] = tested on: HMW polyUb proteins in ES2 cells; assay: Western blot for polyubiquitinated proteins; settings: by 12 h
RPN13 = biological target: T1, RPN13 (Homo sapiens, UniProt Q16186); assay: Cellular Thermal Shift Assay (CETSA), SKOV3 cells; format: binding; settings: SKOV3, 10 μM, 30 min, vs DMSO
T1 construct: endogenous in cells; host or cells: SKOV3 cells
Protocol: Cells were incubated in a thermal cycler (Biorad IQ5 Cycler) over a gradient of temperatures for 4 min, followed by incubation at 25°C for 3 min, then snap-frozen in liquid nitrogen and subjected to three freeze–thaw cycles. Samples were briefly vortexed and centrifuged at 16,000 x g for 20 min at 4°C. Cleared cell lysates were resolved in SDS–PAGE followed by immunoblotting for RPN13, GAPDH, RPN2 and USP14.
Cellular Thermal Shift Assay (CETSA) assesses thermal stabilization of proteins upon ligand binding and is used extensively to detect drug interactions by implementing a thermal shift in the cellular context. The assay involves drug treatment of cells, heating to denature and precipitate proteins in a thermocycler with a specified gradient of temperatures, cell lysis by freeze/thaw cycles, and the separation of cell debris and aggregates from the soluble protein fraction by centrifugation. Whereas unbound proteins denature and precipitate at elevated temperatures, ligand-bound proteins remain in solution. The proportion of individual proteins remaining in solution can be detected by quantitative Western blotting. […]. There was no impact on other control proteins tested, including a house keeping protein (GAPDH) and proteasome subunits (RPN2 and USP14). […]
Resuspended cells were aliquoted into PCR strips. […]

[3] = tested on: PEA2, PACS and SKOV3 cells; assay: Checkerboard combination cytotoxicity (MTT, Synergy finder); format: cell-based; settings: 72 h
Protocol: Results are reported as mean ± standard deviation (s.d.). Statistical significance of differences was assessed by two-tailed Student’s t using Prism (V.5 Graphpad, San Diego, CA) with the level of significance set at p≤0.05. Survival was summarized using Kaplan–Meier methods and compared using log-rank tests. Combination indices (CI) were calculated using Synergy finder.
Cell viability was measured using MTT assay and data was processed using the Synergy Finder web application. B) Same as in A, PACS cell line derived from spontaneous mouse ovarian tumor [32], was used. (TIF) Click here for additional data file.
Cell viability was measured using MTT assay and data was processed using the Synergy Finder web application. (TIF) Click here for additional data file.

[4] = tested on: peritoneal/ovarian tumor (shp53, AKT, c-Myc); assay: Spontaneous genetically-engineered mouse model (GEMM) of ovarian cancer; format: in vivo; settings: C57BL/6, 20mg/kg IP every 3 days for 6 weeks
Protocol: To induce IP tumor formation in immunocompetent mice, oncogenes (shp53, AKT, c-Myc), luciferase and the Sleeping Beauty (SB) transposase (10 μg/plasmid) were diluted in 500 μL of PBS and injected IP into female C57BL/6 mice. The mice were anesthetized by intramuscular injection of ketamine. The plasmid-injected mice were electroporated (EP) by the BTX ECM 830 square wave EP generator (BTX) (5 pulses, 200 V for 100 ms/pulse, 100 ms intervals between each pulse), the caliper electrode (BTX) was held on the waist of mouse. The mice were followed by IVIS imaging weekly for tracking tumor growth. The mice were sacrificed when the bioluminescence signal reached 10^9 photons/sec/cm^2/sr, or had enlarged abdomens due to the production of ascites, or had health conditions and/or criteria under which early euthanasia was required by the protocol (see above). To track peritoneal tumor growth, bioluminescence imaging was performed by the IVIS spectrum2000 (PerkinElmer) as the plasmid expressing SB transposase also produces luciferase. Briefly, the mice were injected IP with D-luciferin (GoldBio). After 10 min, the mice were anesthetized with isoflurane, and imaged by the IVIS Spectrum under the auto exposure mode. Bioluminescence in the peritoneal region was quantified as total photon counts/sec/cm^2/sr using Living Image 3.0 Software (Perkin Elmer).
(§1) A-C) Female nude mice were inoculated IP with ES2-luc cells, a human ovarian cancer line expressing luciferase. […] The IP tumor tissue and electroporated normal muscle tissue, being spatially distinct, were identified with separate regions of interest (ROI) after simultaneous imaging with IVIS.
GEMM better mimic the spontaneous development of cancers in an immune competent host than transplantable tumor lines. Twenty female C57BL/6 mice were co-injected IP with sleeping beauty vector and plasmids expressing carrying shp53, AKT, c-Myc and firefly luciferase genes, followed by electroporation (EP) to deliver these plasmid DNA into the peritoneal cavity cells wherein they integrate randomly into their genome. […]

[5] = tested on: ID8-luc murine ovarian tumor; assay: ID8-Defb29/VegfA-luc syngeneic model, C57BL6 mice; format: in vivo, mouse
Protocol: Female C57BL6 mice were inoculated IP with 3x10^5 ID8-Defb29/VegfA-luc cells in 100 μL PBS. At day 3, mice were imaged for basal level luminescence activity with a Xenogen IVIS 200 after IP injection with luciferin (0.3 mg in 100 μL water). Mice were randomized into groups and treated IP with compounds or vehicle (25% (w/v) β-Hydroxypropylcyclodextrin in water), and imaged again on days indicated.
as §1
Female C57BL6 mice (4–6 weeks) were challenged IP with ID8-luc tumor.

T1 sequence (Q16186 whole entry): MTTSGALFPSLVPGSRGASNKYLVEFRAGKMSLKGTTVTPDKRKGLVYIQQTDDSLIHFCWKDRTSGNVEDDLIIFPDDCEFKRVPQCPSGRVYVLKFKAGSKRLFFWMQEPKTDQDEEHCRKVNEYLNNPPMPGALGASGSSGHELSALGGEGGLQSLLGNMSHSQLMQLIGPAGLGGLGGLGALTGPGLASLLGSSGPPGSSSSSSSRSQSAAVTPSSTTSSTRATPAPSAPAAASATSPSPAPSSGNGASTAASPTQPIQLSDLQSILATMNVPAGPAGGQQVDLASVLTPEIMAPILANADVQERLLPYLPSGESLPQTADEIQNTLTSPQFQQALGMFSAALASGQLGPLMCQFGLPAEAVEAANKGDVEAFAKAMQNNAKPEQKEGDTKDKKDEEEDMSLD

N#Cc1ccc(/C=C2/C(=O)/C(=C/c3ccc(C#N)cc3)C23CCNCC3)cc1 [Up284]
additional degradation in the presence of NADPH, human liver microsomes [1]: ~ 10% | degradation in human liver microsomes without NADPH [1]: ~ 50% | % Drug Remaining NADPH Neg, Human Liver Microsomes ([1]; 0 min): 100% | % Drug Remaining NADPH Pos, Human Liver Microsomes ([1]; 0 min): 100% | % Drug Remaining NADPH Neg, Human Liver Microsomes ([1]; 30 min): 57% | % Drug Remaining NADPH Pos, Human Liver Microsomes ([1]; 30 min): 43% | % Drug Remaining NADPH Neg, Human Liver Microsomes ([1]; 60 min): 52% | % Drug Remaining NADPH Pos, Human Liver Microsomes ([1]; 60 min): 43% | apoptosis, Up284 in combination with cisplatin (TOV21G and ES2 cells): no indication of synergy | accumulation of HMW polyUb proteins [2]: profound accumulation | thermal stabilization of RPN13 (RPN13): stabilized | cytotoxicity of Up284 and doxorubicin combination ([3]; SKOV3 cells): synergy | cytotoxicity of checkerboard combinations of Up284 and cisplatin ([3]; several cell lines including PEA2 and PACS): clear evidence of synergy | ascites [4]: did not develop appreciable ascites | GEMM tumor burden vs vehicle ([4]; p = 0.002): significantly reduced tumor burden | survival vs vehicle ([4]; p = 0.06): trend for prolonged survival | survival vs vehicle ([5]; C57BL6, 20 mg/kg IP every third day for 4 weeks, p = 0.0004): significantly enhanced survival | ID8-luc tumor burden (bioluminescence) vs vehicle ([5]; C57BL6, 20 mg/kg IP every third day, day 15, p = 0.0001): significantly lower tumor burden
